Results taken from the METLIN SMRT retention time set (Domingo-Almenara et al. 2019).

Assay: gradient 5% acetonitrile 3 min, to 50% in 2 min, to 85% in 15 min, held 3 min, 100 µL/min
Settings: column: Zorbax Extend-C18 2.1 x 50 mm; eluents: water / acetonitrile, 0.1% formic acid
How it was run: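 Pure standards were analyzed in mixtures of ~100 molecules using HPLC coupled to a quadrupole time-of-flight mass spectrometer, in both positive and negative ionization mode. Separation used a Zorbax Extend-C18 column (2.1 × 50 mm, 1.8 μm) at 100 μL/min, with water and acetonitrile each containing 0.1% formic acid. Dead and dwell volumes were 40 μL and 900 μL, and data were collected over 3 months. Retention time was read from computationally picked adduct peaks, each inspected manually.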

Compound	RP-LC retention time [s]
COCCn1nc2n(c1=O)CCC1(CC2)CCN(C(=O)C2CC=CC2)CC1	658
CCCCNC(=O)C1CCC(=O)N(c2cc(OC)c(OC)c(OC)c2)C1c1ccc(OC)cc1 (configuration not stated)	709
CCn1c(=O)sc2cc(S(=O)(=O)N3CCC(C(=O)N4CCC5(CC4)OCCO5)CC3)ccc21	781
O=c1c2sccc2n(Cc2nc(-c3ccc(C(F)(F)F)cc3)no2)c(=O)n1Cc1ccccc1	1200
O=C(Nc1cccc(Cl)c1)N1CCc2nc(-c3ccc(Cl)cc3)ncc2C1	1150
COCCOc1ccc2c(c1)ncn2-c1ccc2cccc(N3CCC(N)CC3)c2n1	645
CN1CC(=O)N(CC(=O)Nc2ccc(-c3nc4ccccc4[nH]3)cc2)c2ccccc2C1=O	607
COc1ccc(C(=O)Oc2ccc[nH]c2=O)cc1	721
O=C(CCc1nc(-c2ccc(N3CCCC3)cc2)no1)NCCCN1CCOCC1	655
CCOCC(=O)NCCNC(=O)c1ccc(NC(C)=O)cc1	570
Cc1ccc(CNC(=O)C2(C)CN(S(C)(=O)=O)CC(=O)N2c2ccc(C)c(C)c2)cc1 (configuration not stated)	807
O=C(c1cc(=O)c(OCc2ccc(F)cc2)co1)N1CCN(c2ncccn2)CC1	696
O=c1n(Cc2ccc(F)cc2)nc2c(S(=O)(=O)N3CCCCC3)cccn12	887
CS(=O)(=O)N1CCC(CNC(=O)c2cc(-c3ccccc3)on2)CC1	750
COCc1ncc(C)n1CC1CCN(Cc2sccc2C)CC1	534
Cc1sc2ccn(C)c(=O)c2c1C(=O)N1CCC2(CC1)OCCO2	626
NC(=O)C1CCN(C(=O)Cn2c(-c3cccs3)cc3ccccc32)CC1	744
COc1ccc(N2CC(c3noc(-c4cccc(F)c4)n3)CC2=O)cc1OC (configuration not stated)	847
O=C(Nc1cccn2nc(C3CCC3)nc12)c1ccc(C(F)(F)F)s1	1120

Compound	RP-LC retention time [s]
COc1ccc(CSc2nccc3c2ccn3CC(=O)NCc2ccco2)cc1	686
Cc1nc(S(=O)(=O)N2CCc3c(c(-c4nnc(-c5ccccc5F)o4)nn3C)C2)cn1C	703
COc1ccc(CNC(=O)N2CCC(c3cc(N)on3)CC2)cc1	642
CC(C)(C)n1nnnc1C1CC2(CCOCC2)C(=O)N1Cc1ccc(F)cc1 (configuration not stated)	798
COc1ccc(CNC(=O)C2(C)CCN(S(=O)(=O)c3c(C)cc(C)cc3C)CC2)cc1	912
O=S(=O)(c1ccccc1F)N1CCC2(CCN(c3cccnc3)C2)C1 (configuration not stated)	644
COc1ccc(S(=O)(=O)Nc2ccccc2C(=O)Nc2ccc3c(c2)OCCO3)cc1	880
COc1ccc(Cl)cc1NS(=O)(=O)c1cc2n(c1)CCN(C(C)C)C2=O	803
Cc1ccc(-c2noc(-c3ccccc3S(=O)(=O)N3CCC(C)CC3)n2)cc1	1280
OCCn1cc(-c2cnc3nnn(Cc4ccc5ncccc5c4)c3n2)cn1	620
CSc1cccc(NC(=O)Cn2cccc(-c3nc(-c4ccc(F)cc4)no3)c2=O)c1	939
O=c1ccc(N2CCCN(S(=O)(=O)c3ccc(F)c(Cl)c3)CC2)nn1-c1ccccc1	911
Cc1nc2cc(-c3noc(-c4ccc(Cl)cc4)n3)ccc2o1	1210
CC(NC(=O)c1cc2sccc2n1C)c1ccc2c(c1)OCCO2 (configuration not stated)	903
CN(C)c1ccc(C(=O)NC2CCN(c3ccccc3)C2=O)cc1 (configuration not stated)	713
O=C(CN1CCCc2nc(C3CC3)ncc2C1=O)NCC1CC1	638
CCNC(=O)c1nc(C(=O)NC(C)C)cs1	656
Cc1ccccc1CN1C(=O)N(c2cccc(F)c2)c2ncccc2S1(=O)=O	1090
Cc1nc(N2CCOCC2)cc(N2CCN(C(=O)c3cnn(-c4ccccc4)n3)CC2)n1	587

Second part, the compound after the results:

RP-LC retention time [s]	Compound
869	Cc1nnc2sc(SCc3ccc(Cl)cc3Cl)nn2c1=O
1040	Cn1cccc1CN(C(=O)COc1ccc(Cl)cc1Cl)C1CC1
962	Cc1noc(-c2cccn2Cc2cccc(F)c2)n1
822	COc1ccc(Cl)cc1N(C)C(=O)C(=O)Nc1ccc2nc3n(c(=O)c2c1)CCCCC3
688	Cc1ccc2oc(-c3nnc(C(=O)NCCCN4CCCC4)o3)c(C)c2c1
761	CCCc1c(C(=O)O)nnn1-c1ccc(C)cc1F
596	CCOC(=O)c1nc(N2CCN(c3ccccn3)CC2)c2c(C)noc2n1
804	Cc1ccc(C)c2sc(NC(=O)CN(C)S(C)(=O)=O)nc12
671	Cc1nc2cccnc2n1C1CCN(C(=O)Nc2ccc(Br)cc2F)CC1
657	COCCN(Cc1ccc(Cl)cc1)Cc1cc(=O)n2ccc(C)cc2n1
577	COc1ccc(NC(=O)N2CCN(c3cnn4c(C)nnc4c3)CC2)c(OC)c1
802	CCC(C(=O)NC1CC1)n1nc(C)c2c(C)n(-c3ccc(C)cc3)nc2c1=O (configuration not stated)
796	CCNC(=O)c1nnn(-c2cc(C(F)(F)F)ccc2Cl)c1-c1cccnc1
660	Cc1ccc2c(C)nc(NC3=NCN(CC4CCCO4)CN3)nc2c1 (configuration not stated)
1070	Cc1ccc(-n2ccnc(NC(=O)Nc3cccc(F)c3)c2=O)cc1C
1050	CCc1nc2c(c(=O)n1CC(=O)NCCCc1ccccc1)CN(Cc1ccccc1)CC2
722	Cc1ccc(NS(=O)(=O)c2cc3n(c2)CCN(C)C3=O)cc1C
821	COc1cc(NC(=O)COc2cc(C)nc(N3CCN(c4ccccc4)CC3)n2)cc(OC)c1
1030	O=C(NCc1cc(F)cc(F)c1)c1sc2ncccc2c1-n1cccc1
668	CCCn1c(CCNC(=O)c2ccc(C)cc2)nc2cccnc21
785	COC(=O)c1c(C)[nH]c(C(=O)N2CCC(CC(=O)NCCc3c[nH]c4ccc(Cl)cc34)CC2)c1C
702	Cc1ccc(C)c(NC(=O)C(=O)NCC(c2ccc3c(c2)OCO3)N2CCN(C)CC2)c1 (configuration not stated)
733	CCn1c(C(=O)N2CCCC(C(=O)NCCc3ccc(S(N)(=O)=O)cc3)C2)cc2sccc21 (configuration not stated)
959	Cc1cccc(NC(=O)N2CCCC(C)(C(=O)NCc3ccccc3C)C2)c1 (configuration not stated)
1110	CCOc1ccccc1N1CCN(S(=O)(=O)c2nn(C)cc2C(=O)NC2CCCCC2)CC1
665	O=c1cccnn1CCNS(=O)(=O)c1ccc(F)c(Cl)c1
793	CCN(CC)c1ncc2c(n1)CCC(C(=O)N1CCN(c3ccc(C)cc3)CC1)C2 (configuration not stated)
702	CN1C(=O)CCc2cc(NC(=O)Cc3cccs3)ccc21
673	CCOC(=O)c1cnc2nc(C)ccc2c1Nc1ccccc1
